From patent US20050054702A1, “Method of controlling allergens” (Lonza Inc., priority 2003, published 2005) come the findings set out here.

The target in the experiment is T1, Der p 1 allergen (Dermatophagoides pteronyssinus, UniProt P08176).
T1 sequence (P08176 99-320): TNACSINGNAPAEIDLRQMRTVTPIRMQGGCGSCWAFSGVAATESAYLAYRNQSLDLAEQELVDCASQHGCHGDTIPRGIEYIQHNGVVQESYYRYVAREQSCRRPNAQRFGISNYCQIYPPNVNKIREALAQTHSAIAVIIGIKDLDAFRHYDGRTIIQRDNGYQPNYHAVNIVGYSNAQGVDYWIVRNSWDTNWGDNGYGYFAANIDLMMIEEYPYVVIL
Description: ELISA method for Der p 1 Allergen (level of allergen recovered after exposure to active). The note with it: 10 min exposure to Ag, 62.5 ng/ml Ag in plate. The format is biochemical. The protocol: Several samples were tested using a standard Enzyme Linked Immunosorbent Assay, (ELISA). The ELISA method for Der p 1 Allergen was utilized. Der p 1 allergen is a standardized allergen. The ELISA method provides quantitative results correlating to the level of allergen recovered in the test.
In the ELISA method for Der p 1 Allergen, the coating antibody is Anti-Der p1 mAb 5H8, supplied as a HPLC purified stock solution at 2 mg/ml in phosphate buffered saline. The coating antibody was diluted in coating buffer (12 μl in 12 ml). 100 μl of the diluted coating antibody was dispensed in each well. The plate was held overnight at 4° C. Then the coating antibody was dumped from the plate and the plate was blotted dry. The well was washed 3 times with PBS-T and blotted dry. Next, 100 μl per well of blocking buffer (BSA PBS-T) was added and incubated for 30 minutes at room temperature. A standard curve (doubling dilutions between 250-0.5 ng/ml) was prepared. The experimental samples were prepared. “Controls” are actives exposed to the plate before addition of Ag. The exposure time was 1 hour. The Ag level used in the plate was 62.5 ng/ml as is for the Ag level in the active. “Samples” are Actives exposed to Ag before addition to the plate. Exposure time was 10 minutes before incubation in the plate for 1 hour. Actives were used in 1:1 ratio with 125 ng/ml Ag (yield 62.5 ng/ml Ag in test plate).
The plate was then washed, filled with standards, blanks, controls and samples and incubated for 1 hour. The detecting antibody was prepared. Next, the plate was washed and the detecting antibody was added to each well. The conjugate was prepared. The plate was washed and the conjugate was added. Just before washing the conjugate from the plate, H2O2 was added to the substrate solution. The plate was washed and the substrate was added. The plate was read when the absorbance of 250 ng/ml antigen standard (at 405 nm) reached 2.0-2.4.
The active levels in the table are listed in ppm and are diluted in half by antigen during testing.

Setting [1] is: diluent water, active 15,000 ppm (diluted in half by antigen during testing).
Setting [2] is: diluent water, active 10,000 ppm (diluted in half by antigen during testing).

As for `CCCCCCCCCCCCN(CCCN)CCCN` [N,N-bis(3-aminopropyl) dodecylamine], the “% Reduction” value under setting [1] is reported as 99% and the “% Reduction” value (diluent water, active 50,000 ppm (diluted in half by antigen during testing)) is listed as 100%.
As for `O=C1O[C@H]([C@@H](O)CO)C(O)=C1O` [ascorbic acid], the “% Reduction” value under setting [2] is listed as 91%.
Turning to `O=C(O)CC(O)(CC(=O)O)C(=O)O` [citric acid], the “% Reduction” value (diluent water, active 5,000 ppm (diluted in half by antigen during testing)) turned out to be 100%.
On to `CC(=O)C1C(=O)C=C(C)OC1=O` (stereo not drawn) [dehydroacetic acid], for which the “% Reduction” value (diluent ethoxylated alcohol, active 2,500 ppm (diluted in half by antigen during testing)) is on record as 100%.
On to `O=C1O[C@H]([C@H](O)CO)C(O)=C1O` [erythorbic acid], for which the “% Reduction” value under setting [2] turned out to be 96%.
As to `CC(O)C(=O)O` (stereo not drawn) [lactic acid], under “diluent water, active 3,500 ppm (diluted in half by antigen during testing)”, the “% Reduction” value is 95%.
On to `O=C([O-])[O-].[Na+].[Na+]` [sodium carbonate], for which the “% Reduction” value (diluent water, active 2,500 ppm (diluted in half by antigen during testing)) is recorded as 100%.
With `O=C([O-])CN(CCN(CC(=O)[O-])CC(=O)[O-])CC(=O)[O-].[Na+].[Na+].[Na+].[Na+]` [tetrasodium ethylene diamine tetraacetate], the “% Reduction” value under setting [1] came out at 91%.
